According to patent US20130130903A1, “Suppression of Foliar and Soilborne Pathogens” (priority 2003, published 2013):

Legend:
stripe rust = assay: Bobwhite NILs under natural stripe rust infection, Pullman 2002; format: in vivo, Puccinia striiformis; conditions: for Yield: Pullman 2002, cultivar Bobwhite (res.)
Description: This example describes the response of glyphosate resistant and glyphosate sensitive spring wheat to inoculation with soil pathogens as judged by wheat yield. Inoculation simulates the green-bridge effect of dying weeds and volunteer in a standing wheat crop. The soil pathogens assessed were: Rhizoctonia solani isolate AG-8 and Gaeumannomyces graminis var. tritici. These pathogenic strains are prevalent in the Pacific Northwest and were isolated from the region. They have been maintained by the Department of Plant Pathology and USDA researchers at Washington State University.
Near isogenic lines (glyphosate resistant and glyphosate sensitive) of Westbred 926 and Bobwhite were seeded using a no-till drill at three different sites (Lind, Davenport and Pullman, Wash.).
To introduce the root pathogens into the wheat seed for distribution into the field, oat seeds, autoclaved and sterilized, were inoculated for each soilborne pathogen using isolated pathogen cultures. Oat seeds that were non-inoculated, but sterilized and autoclaved, served as a control. Following two weeks of pathogen growth, the inoculated oat seeds were dried down for 2 days and screened for potential contamination. To establish a green-bridge, a mixture of 15% barley and 20% oat inoculum seeds (by weight) were planted using a small plot no-till drill. One week after planting the introduced green-bridge, the wheat isolines were planted in rows adjacent to the barley green-bridge rows in a randomized, split-plot design, replicated in five randomized blocks. Inoculum treatment served as the main plot, and response to herbicides as the subplot factor.
This example describes the effect of herbicide treatment on spring wheat, averaged over all disease treatments, planted as described in Example 1. The appropriate herbicide was applied to each trial once the plants reached the 4-5 leaf stage with a custom built hand-pulled sprayer outfitted with a boom with a length of 16 feet with spray shields on the side to minimize drift. In this manner, an entire plot was treated at once with the appropriate herbicide rate. Entries that were resistant to glyphosate were treated with ROUNDUP® brand herbicide (0.63 kg/ha), available from Monsanto, St. Louis, Mo. Herbicide sensitive and resistant entries were treated with a common broadleaf herbicide treatment (Buctril/Harmony) or a no-spray control. Introduced green-bridge barley and any other weeds were manually removed 7-10 days after spray treatment to simulate the time required for ROUNDUP to take effect and maintained weed-free conditions to provide an accurate comparison to commercial weed management strategies needed to assess potential herbicide/disease interactions.
This example describes the effect of herbicides on natural stripe rust infection of NILs of Bobwhite with and without glyphosate tolerance. The wheat was seeded and inoculated with Rhizoctonia and Ggt as described in Example 1. The yield results from the Pullman site are recorded in Table 6.

soybean rust = assay: Suppression of soybean rust on glyphosate resistant soybean lines; format: in vivo
Description: This example describes the suppression of soybean rust using glyphosate treatment of glyphosate resistant soybean varieties.
Two different Roundup Ready soybean lines were used: Line 1 (purple flowers/grey pubescence) and Line 2 (white flowers/grey pubescence). Both lines are glyphosate resistant and have been classified as maturity group 3, with white or purple flowers and grey pubescence. The following treatments were used:
Treatment 1: No glyphosate spray before or after inoculation
Treatment 2: One application of glyphosate (48 oz./A) ([…] of active ingredient) three days before inoculation
Treatment 3: Twice the amount of glyphosate as in Treatment 2 (96 oz./A) ([…] of active ingredient) applied three days before inoculation
Treatment 4: One application of glyphosate (48 oz./A) three days before inoculation, and one application (48 oz./A) (1.5 kg/ha of active ingredient) when symptoms of soybean rust first appeared.
Treatment 5: No glyphosate spray before inoculation, and one application (48 oz./A) (1.5 kg/ha of active ingredient) when symptoms of soybean rust first appeared.

O=C(O)CNCP(=O)(O)O [glyphosate, N-phosphonomethylglycine]
stripe rust symptoms (stripe rust; Bobwhite cultivars under severe stripe rust conditions): only moderate stripe rust symptoms
Yield (stripe rust; inoculation Ggt): 49.0 bu/acre
Yield (stripe rust; inoculation None): 44.9 bu/acre
Yield (stripe rust; inoculation Rhizoctonia): 40.0 bu/acre
yields of glyphosate resistant Bobwhite NILs (stripe rust; regardless of what pathogen had been introduced): superior yields
effect on soy rust (soybean rust; treatments 2 and 3: 48 oz./A or 96 oz./A three days before inoculation): dose-dependent effect on soy rust
effect on soybean infected with soy rust (soybean rust; treatments 4 and 5: 48 oz./A when symptoms of soybean rust first appeared): curative effect
